Results: US9879243B2, “Culture medium for cell growth and transfection” (LIFE TECHNOLOGIES CORPORATION, priority 2001, dated 2018)

Assays:
293 cells = test: Effect of replacement compounds on the growth of 293 cells in 293 SFM without transferrin, three passages; format: cell-based, human; conditions: third passage, control 5 μg/mL human holo-transferrin
Experimental: Semi-confluent adherent cultures of 293 Cells (ATCC, CRL 1573) are readily adapted to suspension culture. The cells are first detached with a solution of Trypsin-EDTA (0.05% Trypsin, 0.53 mM Na4EDTA), and then resuspended in conventional medium supplemented with 10% FBS to inhibit the trypsin. The resuspended cells are centrifuged at 200×g for five minutes.
The initial seeding density of the 293 cells after conversion to suspension culture is 1×10^6 cells/mL. The cells are shaken on a rotary shaker at 150 rpm in a 37° C. incubator equilibrated with 8% CO2-92% air. […] Because 293 cells have a tendency to aggregate, the cells can be vortexed vigorously for approximately 45 seconds to obtain a predominantly single cell suspension at the time of passaging and counting. After several passages in suspension culture, the maximum achievable density can be determined.
(§1) For replacement compound evaluation, 293 cells were established in 125 mL shaker flasks at an initial viable seeding density of 2×10^5 cells/mL in a final volume of 20 mL. All cultures were maintained at 37° C. in humidified air containing 8% CO2. To eliminate transferrin carry-over effects, cells were subcultured at 4 day intervals for a total of three passages. At each subculturing, cells were seeded at a density of 2×10^5 cells/mL. Positive control cultures contained 5 μg/mL human holo-transferrin while negative control cultures were established in the absence of either transferrin or replacement compound. Replacement compound stocks were prepared at 0.1M-0.2M in ddH2O and solubilized when necessary using 5N NaOH or HCl. Iron complexes were established using 0.2 M replacement compound and iron stocks mixed 1:1 (v/v) and incubated for 5-10 minutes at 22° C. All solutions containing replacement compounds were filter sterilized using a 0.22 μm Millex-GV filter prior to addition to transferrin and serum-free media.
Except where noted, replacement compounds were evaluated either alone or in combination with ferric chloride or ferrous sulfate at 25 μM, 50 μM and 100 μM. When used in combination, the replacement compounds were used in equimolar concentration with iron ions. Values in Table 4 represent the mean percentage of control growth for duplicate cultures determined at the third passage.
When added to the medium formulation uncomplexed, the replacement compound is listed alone, when added as a complex with a transition metal, the source of the transition metal is listed with the replacement compound.

CHO cells = test: Effect of replacement compounds on the growth of CHO cells in CD CHO medium without transferrin, three passages; format: cell-based, Chinese hamster; conditions: third passage
Experimental: as §1, with “The ability of replacement compounds to support cellular growth in the absence of transferrin was evaluated using CHO cells maintained in CD CHO medium (Invitrogen Corporation, Carlsbad, Calif., the formulation of which is described in WO 98/08934). Stock cultures containing 5 μg/mL human holo-transferrin were prepared in CD CHO medium. For” for “For”, “CHO” for “293”, “1×10^5” for “2×10^5”, “passages.” for “passages. At each subculturing, cells were seeded at a density of 2×10^5 cells/mL.”, “0.2M” for “0.2 M”
Except where noted, replacement compounds were evaluated either alone or in combination with ferric chloride or ferrous sulfate at 25 μM, 50 μM and 100 μM. Values in the table represent the mean percentage of control growth for duplicate cultures determined at the third passage.
The ability of various replacement compounds to substitute for transferrin in the culture of CHO cells was determined. When added to the medium formulation un-complexed, the replacement compound is listed alone, when added as a complex with a transition metal, the source of the transition metal is listed with the metal binding compound.

Sp2/0 cells = test: Effect of replacement compounds on the growth of Sp2/0 cells in CD Hybridoma medium without transferrin, three passages; format: cell-based; conditions: third passage
Experimental: The ability of replacement compounds to support cellular growth in the absence of transferrin was evaluated using Sp2/0 cells maintained in CD Hybridoma medium (Invitrogen Corporation, Carlsbad, Calif.).
Stock cultures containing 5 μg/mL human holo-transferrin were prepared in CD Hybridoma medium. For replacement compound evaluation, Sp2/0 cells were established at an initial viable cell density of 0.5×10^5 cells/mL in stationary culture using 75 cm^2 tissue culture flasks in a final volume of 20 mL. All cultures were maintained at 37° C. in humidified air containing 8% CO2. To eliminate transferrin carry-over effects, cells were subcultured at the same seeding density at 4 day intervals for a total of three passages. Positive control cultures contained 5 μg/mL human holo-transferrin while negative control cultures were established in the absence of either transferrin or replacement compound. Replacement compound stocks were prepared at 0.1M-0.2M in ddH2O and solubilized when necessary using 5N NaOH or HCl. Iron complexes were established using 0.2M replacement compound and iron stocks mixed 1:1 (v/v) and incubated for 5-10 minutes at 22° C. All solutions containing replacement compounds were filter sterilized using a 0.22 μm Millex-GV filter prior to addition to transferrin and serum-free media.
Except where otherwise noted, replacement compounds were evaluated either alone or in combination with ferric chloride or ferrous sulfate at 25 μM, 50 μM and 100 μM. Values in the table represent the mean percentage of control growth for duplicate cultures determined at the third passage.
When added to the medium formulation un-complexed, the replacement compound is listed alone, when added as a complex with a transition metal, the source of the transition metal is listed with the replacement compound.

[1] = 25 μM, iron equimolar where combined
[2] = 25 μM, control 5 μg/mL human holo-transferrin

## Aspartic Acid•Ferric Chloride
293 cells; [1]
  mean percentage of control growth: 81 percentage of control growth
293 cells; 50 μM
  mean percentage of control growth: 86 percentage of control growth
293 cells; 100 μM
  mean percentage of control growth: 100 percentage of control growth
CHO cells; [2]
  mean percentage of control growth: 77 percentage of control growth
CHO cells; 50 μM
  mean percentage of control growth: 89 percentage of control growth
CHO cells; 100 μM
  mean percentage of control growth: 112 percentage of control growth

## Sorbitol•Ferric Chloride
CHO cells; [2]
  mean percentage of control growth: 100 percentage of control growth
CHO cells; 50 μM
  mean percentage of control growth: 107 percentage of control growth
CHO cells; 100 μM
  mean percentage of control growth: 112 percentage of control growth
Sp2/0 cells; [2]
  mean percentage of control growth: 94 percentage of control growth
Sp2/0 cells; 50 μM
  mean percentage of control growth: 55 percentage of control growth
Sp2/0 cells; 100 μM
  mean percentage of control growth: 60 percentage of control growth

## O=c1cc(CO)occ1O [Kojic Acid]
CHO cells; [2]
  mean percentage of control growth: 0 percentage of control growth
CHO cells; 50 μM
  mean percentage of control growth: 0 percentage of control growth
CHO cells; 100 μM
  mean percentage of control growth: 0 percentage of control growth
Sp2/0 cells; [2]
  mean percentage of control growth: 0 percentage of control growth
Sp2/0 cells; 50 μM
  mean percentage of control growth: 0 percentage of control growth
Sp2/0 cells; 100 μM
  mean percentage of control growth: 0 percentage of control growth

## Serine Hydroxamate•Ferric Chloride
293 cells; [1]
  mean percentage of control growth: 68 percentage of control growth
293 cells; 50 μM
  mean percentage of control growth: 65 percentage of control growth
293 cells; 100 μM
  mean percentage of control growth: 51 percentage of control growth
CHO cells; [2]
  mean percentage of control growth: 106 percentage of control growth
CHO cells; 50 μM
  mean percentage of control growth: 121 percentage of control growth
CHO cells; 100 μM
  mean percentage of control growth: 124 percentage of control growth
Sp2/0 cells; [2]
  mean percentage of control growth: 46 percentage of control growth
Sp2/0 cells; 50 μM
  mean percentage of control growth: 66 percentage of control growth
Sp2/0 cells; 100 μM
  mean percentage of control growth: 62 percentage of control growth

## Kojic Acid•Ferric Chloride
CHO cells; [2]
  mean percentage of control growth: 89 percentage of control growth
CHO cells; 50 μM
  mean percentage of control growth: 88 percentage of control growth
CHO cells; 100 μM
  mean percentage of control growth: 85 percentage of control growth
Sp2/0 cells; [2]
  mean percentage of control growth: 0 percentage of control growth
Sp2/0 cells; 50 μM
  mean percentage of control growth: 0 percentage of control growth
Sp2/0 cells; 100 μM
  mean percentage of control growth: 0 percentage of control growth

## 4-Pyridoxic Acid•Ferric Chloride
293 cells; [1]
  mean percentage of control growth: 109 percentage of control growth
293 cells; 50 μM
  mean percentage of control growth: 85 percentage of control growth
293 cells; 100 μM
  mean percentage of control growth: 99 percentage of control growth
CHO cells; [2]
  mean percentage of control growth: 55 percentage of control growth
CHO cells; 50 μM
  mean percentage of control growth: 63 percentage of control growth
CHO cells; 100 μM
  mean percentage of control growth: 100 percentage of control growth
Sp2/0 cells; [2]
  mean percentage of control growth: 40 percentage of control growth
Sp2/0 cells; 50 μM
  mean percentage of control growth: 73 percentage of control growth
Sp2/0 cells; 100 μM
  mean percentage of control growth: 76 percentage of control growth

## Cysteine•Ferrous Sulfate
CHO cells; [2]
  mean percentage of control growth: 83 percentage of control growth
CHO cells; 50 μM
  mean percentage of control growth: 64 percentage of control growth
CHO cells; 100 μM
  mean percentage of control growth: 45 percentage of control growth
Sp2/0 cells; [2]
  mean percentage of control growth: 85 percentage of control growth
Sp2/0 cells; 50 μM
  mean percentage of control growth: 79 percentage of control growth
Sp2/0 cells; 100 μM
  mean percentage of control growth: 67 percentage of control growth

## [Cl][Fe]([Cl])[Cl].[O-][n+]1cccc(O)c1 [3-Hydroxypyridine-N-Oxide•Ferric Chloride]
293 cells; [1]
  mean percentage of control growth: 77 percentage of control growth
293 cells; 50 μM
  mean percentage of control growth: 72 percentage of control growth
293 cells; 100 μM
  mean percentage of control growth: 81 percentage of control growth
CHO cells; [2]
  mean percentage of control growth: 77 percentage of control growth
CHO cells; 50 μM
  mean percentage of control growth: 66 percentage of control growth
CHO cells; 100 μM
  mean percentage of control growth: 101 percentage of control growth
Sp2/0 cells; [2]
  mean percentage of control growth: 55 percentage of control growth
Sp2/0 cells; 50 μM
  mean percentage of control growth: 54 percentage of control growth
Sp2/0 cells; 100 μM
  mean percentage of control growth: 57 percentage of control growth

## O=C(O)c1ccccn1.[Cl][Fe]([Cl])[Cl] [2-Pyridinecarboxylic Acid•Ferric Chloride]
CHO cells; [2]
  mean percentage of control growth: 88 percentage of control growth
CHO cells; 50 μM
  mean percentage of control growth: 89 percentage of control growth
CHO cells; 100 μM
  mean percentage of control growth: 100 percentage of control growth
Sp2/0 cells; [2]
  mean percentage of control growth: 0 percentage of control growth
Sp2/0 cells; 50 μM
  mean percentage of control growth: 30 percentage of control growth
Sp2/0 cells; 100 μM
  mean percentage of control growth: 48 percentage of control growth
